# Experimental data taken from paper PMC8151892, “Partial Agonist Activity of Neonicotinoids on Rat Nicotinic Receptors: Consequences over Epinephrine Secretion and In Vivo Blood Pressure” (International Journal of Molecular Sciences, 2021).
# Target: T1, α3β4 nicotinic acetylcholine receptor (α3 subunit) (Rattus norvegicus, UniProt P04757+P12392)
# T1 construct: gene Chrna3; complete open reading frames of rat α3 and β4 subunits, RNA 1:1, Xenopus oocytes; with nAChR β4 subunit (Chrnb4)
# Experiment: two-electrode voltage clamp in Xenopus oocytes (partial agonist)
# Type: cell-based
# T1 sequence (P04757 26-499): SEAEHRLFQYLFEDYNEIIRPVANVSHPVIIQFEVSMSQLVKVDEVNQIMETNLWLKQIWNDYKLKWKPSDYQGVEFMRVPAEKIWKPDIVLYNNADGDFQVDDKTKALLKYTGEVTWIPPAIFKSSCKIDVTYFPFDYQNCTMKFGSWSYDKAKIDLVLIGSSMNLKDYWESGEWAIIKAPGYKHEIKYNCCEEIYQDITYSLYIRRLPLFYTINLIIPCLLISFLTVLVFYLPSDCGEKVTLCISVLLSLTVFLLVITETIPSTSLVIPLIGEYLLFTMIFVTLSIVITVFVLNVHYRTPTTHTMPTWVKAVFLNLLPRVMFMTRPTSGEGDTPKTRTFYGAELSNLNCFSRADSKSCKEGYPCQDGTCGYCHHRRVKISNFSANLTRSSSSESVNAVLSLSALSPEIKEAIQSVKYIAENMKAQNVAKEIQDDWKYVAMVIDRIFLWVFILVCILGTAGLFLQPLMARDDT
# T1 sequence (P12392 21-495): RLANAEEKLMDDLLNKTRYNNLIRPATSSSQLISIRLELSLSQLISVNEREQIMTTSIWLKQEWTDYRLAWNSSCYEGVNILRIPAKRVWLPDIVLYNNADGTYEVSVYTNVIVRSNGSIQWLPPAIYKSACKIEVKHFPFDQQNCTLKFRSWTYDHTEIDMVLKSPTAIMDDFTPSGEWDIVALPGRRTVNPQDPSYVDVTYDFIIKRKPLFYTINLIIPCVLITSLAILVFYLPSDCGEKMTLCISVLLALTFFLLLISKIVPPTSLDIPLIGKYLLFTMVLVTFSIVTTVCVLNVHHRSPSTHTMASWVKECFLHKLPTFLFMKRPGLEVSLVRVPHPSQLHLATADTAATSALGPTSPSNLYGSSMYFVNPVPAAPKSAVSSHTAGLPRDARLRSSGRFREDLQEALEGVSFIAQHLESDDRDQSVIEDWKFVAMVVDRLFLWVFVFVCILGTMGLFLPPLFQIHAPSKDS
smiles,measurement,value
"CN/C(=N\[N+](=O)[O-])NCc1cnc(Cl)s1 [CLO, clothianidin]",EC50,8.39 ± 0.77 mM
